Results reported in PMC8040053 (ACS Medicinal Chemistry Letters, 2021).

Key:
[1] = target: T1, HDAC3 (Homo sapiens, UniProt O15379); test: HDAC3 progress curve analysis / jump dilution; format: biochemical; conditions: HDAC3, linear progress curves
[2] = target: T1, HDAC3; test: HDAC3 inhibition assay; format: biochemical; conditions: for HDAC3 LBE: HDAC3-derived ligand binding efficiency
[3] = Lead profiling panel of 115 biochemical and binding assays at Eurofins Panlabs; conditions: 115-assay panel

T1 sequence (O15379 whole entry): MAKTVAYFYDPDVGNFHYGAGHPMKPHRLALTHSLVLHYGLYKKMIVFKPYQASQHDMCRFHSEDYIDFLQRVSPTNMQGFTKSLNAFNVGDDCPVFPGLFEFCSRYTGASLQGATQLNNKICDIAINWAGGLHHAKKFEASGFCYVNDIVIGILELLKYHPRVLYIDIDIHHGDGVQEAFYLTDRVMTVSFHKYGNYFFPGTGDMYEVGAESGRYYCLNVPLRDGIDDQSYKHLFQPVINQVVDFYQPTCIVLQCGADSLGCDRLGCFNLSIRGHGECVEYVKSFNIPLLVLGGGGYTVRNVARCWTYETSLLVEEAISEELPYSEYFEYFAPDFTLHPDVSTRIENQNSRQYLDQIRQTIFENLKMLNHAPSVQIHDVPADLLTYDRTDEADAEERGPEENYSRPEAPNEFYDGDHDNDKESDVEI
T1 sequence (Q9Y618 1-899 partner limits assumed): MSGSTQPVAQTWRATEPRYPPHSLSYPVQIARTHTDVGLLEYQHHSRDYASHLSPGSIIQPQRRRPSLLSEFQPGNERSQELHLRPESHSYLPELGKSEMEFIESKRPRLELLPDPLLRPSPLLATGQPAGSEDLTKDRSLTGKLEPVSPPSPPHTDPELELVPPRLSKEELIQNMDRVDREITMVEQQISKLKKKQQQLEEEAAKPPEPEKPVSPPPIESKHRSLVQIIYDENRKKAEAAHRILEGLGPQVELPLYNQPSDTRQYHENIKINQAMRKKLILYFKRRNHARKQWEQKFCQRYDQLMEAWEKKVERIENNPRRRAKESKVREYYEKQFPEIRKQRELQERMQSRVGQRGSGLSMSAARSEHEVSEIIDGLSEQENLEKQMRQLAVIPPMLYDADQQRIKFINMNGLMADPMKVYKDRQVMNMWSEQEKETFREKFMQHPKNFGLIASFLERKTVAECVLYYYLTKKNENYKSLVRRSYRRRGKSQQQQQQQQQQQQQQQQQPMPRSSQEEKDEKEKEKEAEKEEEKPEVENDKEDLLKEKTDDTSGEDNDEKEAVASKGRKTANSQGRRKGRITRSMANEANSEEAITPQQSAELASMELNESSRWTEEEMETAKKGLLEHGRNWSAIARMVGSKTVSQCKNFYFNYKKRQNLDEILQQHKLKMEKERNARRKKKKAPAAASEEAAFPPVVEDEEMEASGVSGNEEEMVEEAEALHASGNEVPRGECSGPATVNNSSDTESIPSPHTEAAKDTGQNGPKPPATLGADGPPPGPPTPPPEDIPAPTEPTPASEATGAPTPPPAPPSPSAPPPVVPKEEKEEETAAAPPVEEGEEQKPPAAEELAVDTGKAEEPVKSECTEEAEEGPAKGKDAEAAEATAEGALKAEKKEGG

Row | SMILES | inhibition kinetics mechanism [1] | HDAC3 LBE [2] | selectivity for HDAC inhibition over off-target hits [3] | IC50 ([2]; read-out: HDAC3 IC50, Table 3)
1 | CCCC[C@H](NC(=O)C1CN(C)C1)c1ncc(-c2cc3ccccc3nc2OC)[nH]1 [Compound 12] | fast-on/fast-off kinetics |  |  | 
2 | CCCC[C@H](NC(=O)[C@H](C)c1c(C)[nH]c2ccc(O)cc12)c1ncc(-c2cc3ccccc3nc2OC)[nH]1 [Compound 19] | fast-on/fast-off kinetics | 0.25 | 10–1000 fold | 
3 | CCCC[C@H](NC(=O)[C@H](CN)c1c(C)[nH]c2ccc(OC)cc12)c1ncc(-c2cc3ccccc3nc2OC)[nH]1 [Compound 21] |  |  |  | 18 nM
4 | CCCC[C@H](NC(=O)[C@H](C)c1c(C)[nH]c2ccc(OC)cc12)c1ncc(-c2cc3ccccc3nc2OC)[nH]1 [Compound 20] |  | 0.25 |  | 
